From publication PMC7993393, “8-Mercaptoguanine-based inhibitors of Mycobacterium tuberculosis dihydroneopterin aldolase: synthesis, in vitro inhibition and docking studies” (Journal of Enzyme Inhibition and Medicinal Chemistry, 2021)

What was measured:
MtFolB [1] = target: T1, MtFolB (Mycobacterium tuberculosis, UniProt P9WNC5); test: MtFolB aldolase activity inhibition, continuous fluorescence assay (IC50); format: biochemical
T1 construct: made in house

MtFolB [2] = target: T1, MtFolB; test: Mode of inhibition and inhibition constants on MtFolB aldolase activity (Lineweaver-Burk); format: biochemical; conditions: towards DHNP; for Inhibition mode: Lineweaver-Burk plots; for Ki: enzyme-inhibitor complex, read-out: Kis; for Ki / Kii: 300 nM MtFolB; for Kii: enzyme-substrate-inhibitor complex
SaFolB = system: SaFolB; parameters: method as in PMID 15027862; conditions: read-out: IC50 against SaFolB; cited from earlier work
[3] = target: 6-hydroxymethyl-7,8-dihydropterin pyrophosphokinase from S. aureus (SaHPPK); parameters: method as in PMID 22276115; conditions: read-out: IC50 against SaHPPK; cited from earlier work

T1 sequence (P9WNC5 whole entry): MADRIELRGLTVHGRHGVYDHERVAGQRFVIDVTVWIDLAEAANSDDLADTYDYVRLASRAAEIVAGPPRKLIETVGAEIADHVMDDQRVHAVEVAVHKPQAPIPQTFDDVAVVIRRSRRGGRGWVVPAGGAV

`Nc1nc2[nH]c(SCc3ccccc3F)nc2c(=O)[nH]1` [Compound 2c, 2-Amino-8-((2-fluorobenzyl)thio)-1,9-dihydro-6H-purin-6-one] gave a melting point of 289 to 290 °C and an IC50 (MtFolB [1]) of 8000 nM.
For `Nc1nc2[nH]c(SCC(=O)NCc3ccccc3)nc2c(=O)[nH]1` [Compound 4c, 2-((2-Amino-6-oxo-6,9-dihydro-1H-purin-8-yl)thio)-N-benzylacetamide], the IC50 (MtFolB [1]) was 12300 nM.
In the case of `Nc1nc2[nH]c(SCC(=O)Nc3ccc4ccccc4c3)nc2c(=O)[nH]1` [Compound 4b, 2-((2-Amino-6-oxo-6,9-dihydro-1H-purin-8-yl)thio)-N-(naphthalen-2-yl)acetamide], the melting point is reported as 286 to 289 °C and the IC50 (MtFolB [1]) is reported as 700 nM.
Work on `Nc1nc2[nH]c(SCc3ccc(Br)cc3)nc2c(=O)[nH]1` [Compound 2h, 2-Amino-8-((4-bromobenzyl)thio)-1,9-dihydro-6H-purin-6-one] yielded an IC50 (MtFolB [1]) of 3000 nM.
In the case of `CCCCCCCc1ccc(NC(=O)CSc2nc3c(=O)[nH]c(N)nc3[nH]2)cc1` [Compound 4h, 2-((2-Amino-6-oxo-6,9-dihydro-1H-purin-8-yl)thio)-N-(4-heptylphenyl)acetamide], the melting point is reported as over 310 °C, the IC50 (MtFolB [1]) is reported as 400 nM and the Inhibition mode (MtFolB [2]) is reported as “Non-competitive”. The Ki (MtFolB [2]) was 500 ± 100 nM and the Kii (MtFolB [2]) was 1.2 ± 0.2 µM.
`Nc1nc2[nH]c(SCc3ccc(F)cc3)nc2c(=O)[nH]1` [Compound 2d, 2-Amino-8-((4-fluorobenzyl)thio)-1,9-dihydro-6H-purin-6-one] gave a melting point of 299 to 300 °C and an IC50 (MtFolB [1]) of 8000 nM.
`Nc1nc2[nH]c(SCc3ccc(Cl)c(Cl)c3)nc2c(=O)[nH]1` [Compound 2g] showed a melting point of 290 to 291 °C, an IC50 (MtFolB [1]) of 5500 nM and an IC50 fold higher (MtFolB [1]; IC50 compared to monosubstituted analog 2f) of 2.5 fold.
With `Nc1nc2[nH]c(SCc3ccccc3)nc2c(=O)[nH]1` [Compound 2a, 2-Amino-8-(benzylthio)-1,9-dihydro-6H-purin-6-one] the IC50 (MtFolB [1]) was 7100 nM.
Work on `Nc1nc2[nH]c(SCC(=O)Nc3ccc(Cl)cc3)nc2c(=O)[nH]1` [Compound 4e, 2-((2-Amino-6-oxo-6,9-dihydro-1H-purin-8-yl)thio)-N-(4-chlorophenyl)acetamide] yielded an IC50 (MtFolB [1]) of 800 nM.
For `CCCc1ccc(NC(=O)CSc2nc3c(=O)[nH]c(N)nc3[nH]2)cc1` [Compound 4g, 2-((2-Amino-6-oxo-6,9-dihydro-1H-purin-8-yl)thio)-N-(4-propylphenyl)acetamide], the IC50 (MtFolB [1]) was 900 nM.
In the case of `Nc1nc2nc(S)[nH]c2c(=O)[nH]1` [8-MG (1), 8-mercaptoguanine], the IC50 (MtFolB [1]) is reported as 300 nM, the Inhibition mode (MtFolB [2]) is reported as “Non-competitive” and the Ki (MtFolB [2]) is reported as 300 ± 100 nM. The Kii (MtFolB [2]) was 0.6 ± 0.1 µM, the IC50 (SaFolB) was 1000 nM and the IC50 [3] was 41000 nM.
In the case of `Nc1nc2[nH]c(SCc3ccc(Cl)cc3)nc2c(=O)[nH]1` [Compound 2f, 2-Amino-8-((4-chlorobenzyl)thio)-1,9-dihydro-6H-purin-6-one], the melting point is reported as 291 to 294 °C and the IC50 (MtFolB [1]) is reported as 2200 nM.
In the case of `Nc1nc2[nH]c(SCC(=O)Nc3ccc(Br)cc3)nc2c(=O)[nH]1` [Compound 4f, 2-((2-Amino-6-oxo-6,9-dihydro-1H-purin-8-yl)thio)-N-(4-bromophenyl)acetamide], the melting point is reported as over 310 °C, the IC50 (MtFolB [1]) is reported as 500 nM and the Inhibition mode (MtFolB [2]) is reported as “Competitive”. The Ki (MtFolB [2]) was 100 ± 30 nM.
`COc1ccccc1C(=O)CSc1nc2nc(N)[nH]c(=O)c2[nH]1` [Compound 3c, 2-Amino-8-((2–(2-methoxyphenyl)-2-oxoethyl)thio)-1,9-dihydro-6H-purin-6-one] showed an IC50 (MtFolB [1]) of 1300 nM.
Compound `Nc1nc2[nH]c(SCc3ccccc3Cl)nc2c(=O)[nH]1` [Compound 2e, 2-Amino-8-((2-chlorobenzyl)thio)-1,9-dihydro-6H-purin-6-one] has an IC50 (MtFolB [1]) of 4200 nM.
Work on `Nc1nc2[nH]c(SCC(=O)c3ccccc3)nc2c(=O)[nH]1` [Compound 3a, 2-Amino-8-((2-oxo-2-phenylethyl)thio)-1,9-dihydro-6H-purin-6-one] yielded a melting point of over 310 °C and an IC50 (MtFolB [1]) of 900 nM.
For `Nc1nc2[nH]c(SCc3ccc4ccccc4c3)nc2c(=O)[nH]1` [Compound 2b, 2-Amino-8-((naphthalen-2-ylmethyl)thio)-1,9-dihydro-6H-purin-6-one], the melting point was 286 to 287 °C, the IC50 (MtFolB [1]) was 1300 nM and the “Improvement of activity (fold)” value (MtFolB [1]; IC50 compared to benzyl derivative 2a) was “more than 5 fold”.
`Nc1nc2[nH]c(SCC(=O)Nc3ccccc3)nc2c(=O)[nH]1` [Compound 4a, 2-((2-Amino-6-oxo-6,9-dihydro-1H-purin-8-yl)thio)-N-phenylacetamide] gave an IC50 (MtFolB [1]) of 2200 nM.
With `Nc1nc2[nH]c(SCC(=O)Nc3ccc(F)cc3)nc2c(=O)[nH]1` [Compound 4d, 2-((2-Amino-6-oxo-6,9-dihydro-1H-purin-8-yl)thio)-N-(4-fluorophenyl)acetamide] the IC50 (MtFolB [1]) was 2000 nM.
For `Nc1nc2[nH]c(SCC(=O)c3ccc(Cl)cc3)nc2c(=O)[nH]1` [Compound 3b, 2-Amino-8-((2–(4-chlorophenyl)-2-oxoethyl)thio)-1,9-dihydro-6H-purin-6-one], the melting point was 300 to 316 °C, the IC50 (MtFolB [1]) was 300 nM and the Inhibition mode (MtFolB [2]) was “Non-competitive”. The Ki (MtFolB [2]) was 400 ± 100 nM and the Kii (MtFolB [2]) was 0.9 ± 0.2 µM.
